Measured values published in publication PMC3636874, “An Antedrug of the CXCL12 Neutraligand Blocks Experimental Allergic Asthma without Systemic Effect in Mice” (The Journal of Biological Chemistry, 2013).
Like-named read-outs stand apart in the source and are kept apart here.

What was measured:
CXCL12 binding to CXCR4 = target: T1, CXCL12 binding to CXCR4 (Homo sapiens, UniProt P48061); assay: FRET-based binding of CXCL12-TR to EGFP-hCXCR4 (competition); conditions: dose-dependent
T1 construct: expressed in transfected cells
Experimental: FRET-based binding experiments were carried out as described ([26], [46]). Human embryonic kidney 293 cells expressing the fusion receptor EGFP-hCXCR4 were harvested in PBS (137 mM NaCl, 2.7 mM KCl, 4.3 mM Na2PO4·7H2O, 1.4 mM KH2PO4, pH 7.4) supplemented with 5 mM EDTA, pH 7.4, centrifuged, and resuspended in HEPES-bovine serum albumin (BSA) buffer (10 mM HEPES, 137.5 mM NaCl, 1.25 mM MgCl2, 1.25 mM CaCl2, 6 mM KCl, 10 mM glucose, 0.4 mM NaH2PO4, 0.1% bovine serum albumin (w/v), pH 7.4). Cells were used at a concentration of 10^6 cells/ml. Apparent affinities of the different ligands were determined by real-time fluorescence monitoring ligand-receptor interactions. […] Fluorescence emitted at 510 nm (excitation at 470 nm) was recorded at 21 °C using a Fluorolog 2 spectrofluorimeter (SPEX) and sampled every 0.3 s. Binding of CXCL12-TR to EGFP-labeled CXCR4 was detected as a reversible decline of emission at 510 nm, due to energy transfer from excited EGFP to TR. For competition experiments, the fluorescent chemokine was preincubated for 1 h at room temperature with or without various concentrations of each chalcone. Then the premix was added, and fluorescence was recorded until equilibrium was reached (300 s). Data were analyzed using Kaleidagraph 3.08 software (Synergy Software, Reading, PA).

[1] = Chemical stability in PBS pH 7.4; assay type: physicochemical
Experimental: Solubility and stability studies were performed on a Gilson HPLC system with a photodiode array detector, an autosampler, and a Valco injector. Data acquisition and processing were performed with Trilution LC version 2.0 software. Measurements were carried out at 21 ± 1 °C. A 2.6-μm Kinetex column (50 × 4.6 mm) was used for stability studies in biological media, and a 5-μm Luna C18(2) column (50 × 4.6 mm) was used for solubility and chemical stability analysis. Both columns were purchased from Phenomenex. The injection volume was 20 μl, the mobile phase flow rate was 2 ml/min, and the following program was applied for the elution: 0–0.2 min, 0% B; 0.2–2.7 min, 0–100% B; 2.7–3.2 min, 100% B; 3.2–3.4 min, 100–0% B; 3.4–6.1 min, 0% B. Solvent B was HPLC grade acetonitrile (Sigma-Aldrich CHROMASOLV). The aqueous solvent contained 0.1% trifluoroacetic acid, and the detection wavelength was 365 nm.
Stability of compounds was assessed in PBS, pH 7.4, with or without 10% HP-βCD at 20 °C up to 24 h. For each compound, the 10 mM DMSO stock solution was diluted to a final incubation concentration of 10 μM with 0.1% DMSO. 20 μl of sample were removed at t0, 1, 2, 4, 6, 8, 10, and 24 h and directly injected onto the HPLC. The percentage of remaining test compound relative to t0 was measured by monitoring the peak area on the chromatogram.

HepG2 cells = assay: Cytotoxicity, Alamar Blue (resazurin) reduction assay; assay type: cell-based, human; conditions: HepG2: 10 μM, 24 h
Experimental: The capacity of the cells to carry out reduction reactions after drug treatment was estimated with the fluorescent Alamar Blue reagent (AbD Serotec, Oxford, UK). Proliferating cells cause the change from the oxidized blue and non-fluorescent Alamar Blue form (resazurin) to a reduced, pink, highly fluorescent form (resorufin) that can be detected using fluorescence monitoring (excitation 560 nm; emission 590 nm). HepG2 or HEK 293 cells were seeded at a density of 30,000 cells/well on a 96-well plate and allowed to settle overnight before treatment. The dye was added to the cells together with the test substances (5-fold concentrated stock solution prepared in culture medium or in PBS with 10% HP-βCD), and the fluorescence was measured after 24-h incubation, using a Flex Station (Molecular Devices).

[2] = set-up: method as in PMID 24900366; conditions: cited from earlier work

SMILES | concentration giving maximal inhibition of CXCL12 binding to CXCR4 (CXCL12 binding to CXCR4) | half-life at 10 μM ([1]; PBS pH 7.4, 20 °C, read-out: Stability half-life (t1/2), PBS (converted)) | half-life at 10 μM ([1]; PBS with 10% HP-βCD, PBS pH 7.4 with 10% HP-βCD, 20 °C, read-out: Stability half-life (t1/2), PBS, 10% β-cyclodextrine (converted)) | toxic effect in vivo or in HepG2 cells in vitro (HepG2 cells) | Stability half-life (t1/2), lung homogenate ([2]; mouse lung homogenate) | percentage of starting molecule recovered, lung homogenate ([2]; time not given)
COc1cc(/C=C(\C#N)C(=O)c2ccc(Cl)cc2)ccc1O [CN-chalcone 4, (E)-2-(4-chlorobenzoyl)-3-(4-hydroxy-3-methoxyphenyl)acrylonitrile] | > 1 µM | 6 h | 16.3 h | neither the reactants nor carbonitrile-chalcone 4 display any toxic effect |  | 
COc1cc(/C=C/C(=O)c2ccc(Cl)cc2)ccc1O [chalcone 4] |  |  |  |  | > 6 h | 60%
